{"source": "patent US12552733B2", "about": "“Terpenophenolic compounds and their use” (Phytotherapeutix Ltd., priority 2020, dated 2026)", "key": {"[1]": {"experiment": "PK study: plasma levels after i.p. administration, LC/MS/MS", "assay_type": "in vivo, Mouse", "settings": "100 mg/kg i.p.; sampled at 30, 60, 120 min", "method": "For testing of each compound, six CD-1 mice were divided into 2 groups of 3. Animals were administered test agents via i.p. route and blood collected at 30, 60 and 120 min, administration as outlined in Table 1. Blood samples were collected in EDTA-coated microfuge tubes, inverted and placed on an ice pack prior to centrifugation and storage at −70° C. Samples were extracted using an acetonitrile/protein precipitation method and levels of test agent analysed by LC/MS/MS.\nBioanalytical detection method was developed using an LC/MS/MS (ABI 5000 or 5500). Standard curves of the test agent were prepared in an appropriate biological matrix (plasma). Levels of test article was measured in plasma as per the developed method.\nLevels were determined by extrapolating the concentration from a standard curve using linear regression analysis. Method development and bioanalysis was performed by a partner company, Keystone Bioanalytical (North Wales, PA, US)."}, "[2]": {"test_system": "PTZ mouse model of seizures", "experiment": "PTZ-induced seizures study", "assay_type": "in vivo", "settings": "30 min pretreatment; for protection from clonic seizures (PTZ) vs vehicle-treated animals / protection from tonic hindlimb seizures (PTZ) vs vehicle-treated animals: test compounds 200 mg/kg IP, CBD 100 mg/kg IP, 60 min, PTZ 100 mg/kg i.p.", "method": "Mice were acclimated to the procedure room for at least 30 minutes. Pentylenetetrazole (PTZ; SigmaAldrich) was formulated in water to a concentration of 20 mg/ml. Injections of PTZ were made at a volume of 5 mI/kg to produce a final dose of 100 mg/kg. PTZ injections were i.p. Diazepam was formulated at a concentration of 2 mg/mL and administered at volume of 10 mL/kg to produce a final dose of 20 mg/kg. Time to initial myoclonic and tonic hindlimb extensor response was measured. A 10-min maximum latency to seizure was imposed.\n(§1) The data was expressed as mean+SEM. Statistical analysis using one-way ANOVA with post-hoc Fisher's LSD test was used to determine statistical significance compared to the vehicle-treated animals.\n(§2) Animals received treatments according to Table 3.\nas §2"}, "[3]": {"test_system": "MES mouse model of seizures", "experiment": "Maximal Electroshock (MES) seizure study", "assay_type": "in vivo", "settings": "test compounds 200 mg/kg IP, 30 min pretreatment, CBD 100 mg/kg IP, 60 min, one-way ANOVA, Fisher's LSD", "method": "Animals were administered vehicle, phenytoin, CBD or test compounds and gross behavioural observations were done for 30 minutes. Proparacaine hydrochloride ophthalmic solution (Butler AHS, Dublin, OH) was applied approximately 10 minutes prior to testing to numb the eyes. Thirty to sixty minutes after administration of vehicle,phenytoin, CBD or test compounds, 0.9% saline solution (sodium chloride in water) was applied to both eyes and electro-convulsions were produced by an alternating current delivered via corneal electrodes by a Rodent Shocker generator at a frequency of 60 Hz (Harvard Apparatus, Holliston, Mass.). Parameters for the ICR:CD1 mice were 0.2 s stimulus duration at an intensity of 25 mA. The criterion for seizure occurrence were presence of a tonic hind limb extension, defined as extension exceeding a 90-degree angle with the plane of the body. […] Any seizure activity (i.e. clonic seizures defined as rapid spasms or jerky movements of the limbs) prior to tonic hind limb seizure were recorded as presence of seizure (noted as 1-yes, 0-no). After seizure exhibition or 20-second timeout, mice were euthanized via cervical dislocation.\nas §1\nThe results of the MES study are illustrated in FIG. 4: MES: Latency in seconds for seizures to occur in mice. Animals received treatments according to Table 2. […] Data are expressed as the average ±SEM. Data were analysed by One-way ANOVA, followed by a post-hoc Fisher's LSD test. ***P<0.001, *P<0.05, n=1 PTZ Study"}}, "data": [{"smiles": "C=C(C)[C@@H]1CCC(C)=C[C@H]1c1c(O)cc(CCc2ccccc2)cc1O", "note": "[(−)-trans-CBD-PET, (1′R,2′R)-5′-methyl-4-phenethyl-2′-(prop-1-ene-2-yl)-1′,2′,3′,4′-tetrahydro-[1,1′-biphenyl]-2,6-diol]", "values": [{"measurement": "time at which maximal concentration in plasma was achieved after the injection", "setting": "[1]", "result": 30, "unit": "min"}, {"measurement": "protection from clonic seizures (PTZ) vs vehicle-treated animals", "setting": "[2]; listed as (−)-trans CBD-PET", "result": "significant protection from clonic seizures"}, {"measurement": "protection from tonic hindlimb seizures (PTZ) vs vehicle-treated animals", "setting": "[2]; listed as (−)-trans CBD-PET", "result": "significant effect, protecting from tonic hindlimb seizures"}, {"measurement": "protection from clonic seizures (PTZ) vs vehicle-treated animals", "setting": "[2]; listed as CBD-PET", "result": "showing activity against both clonic and tonic seizures"}, {"measurement": "protection from tonic hindlimb seizures (PTZ) vs vehicle-treated animals", "setting": "[2]; listed as CBD-PET", "result": "showing activity against both clonic and tonic seizures"}]}, {"smiles": "C=C(C)[C@@H]1CCC(C)=C[C@H]1c1c(O)cc(CCc2ccc(O)cc2)cc1O", "note": "[(−)-trans-CBD-PET-OH, (1′R,2′R)-4-(4-hydroxyphenethyl)-5′-methyl-2′-(prop-1-ene-2-yl)-1′,2′,3′,4′-tetrahydro-[1,1′-biphenyl]-2,6-diol]", "values": [{"measurement": "time at which maximal concentration in plasma was achieved after the injection", "setting": "[1]", "result": 30, "unit": "min"}, {"measurement": "effect in the MES study (latency to tonic hindlimb seizure) vs vehicle", "setting": "[3]; listed as (−)-trans CBD-PET-OH", "result": "significantly different from vehicle"}, {"measurement": "effect in the MES study (latency to tonic hindlimb seizure) vs vehicle", "setting": "[3]; listed as CBD-PET-OH", "result": "effective"}, {"measurement": "protection from tonic hindlimb seizures (PTZ) vs vehicle-treated animals", "setting": "[2]; listed as (−)-trans CBD-PET-OH", "result": "significant effect, protecting from tonic hindlimb seizures"}, {"measurement": "protection from tonic hindlimb seizures (PTZ) vs vehicle-treated animals", "setting": "[2]; listed as CBD-PET-OH", "result": "particularly effective against tonic seizures"}]}, {"smiles": "C=C(C)[C@@H]1CCC(C)=C[C@H]1c1c(O)cc(CCCCC)cc1O", "note": "[Cannabidiol, reference compound]", "values": [{"measurement": "effect in the MES study (latency to tonic hindlimb seizure) vs vehicle", "setting": "[3]", "result": "did not produce a significant effect"}, {"measurement": "protection from clonic seizures (PTZ) vs vehicle-treated animals", "setting": "[2]", "result": "did not produce a significant effect"}, {"measurement": "protection from tonic hindlimb seizures (PTZ) vs vehicle-treated animals", "setting": "[2]", "result": "did not produce a significant effect"}]}, {"smiles": "CN1C(=O)CN=C(c2ccccc2)c2cc(Cl)ccc21", "note": "[diazepam, reference compound]", "values": [{"measurement": "protection from the seizures (PTZ; clonic and tonic hindlimb, FIGS. 5 and 6)", "setting": "[2]; PO, p<0.05", "result": 100, "unit": "%"}]}]}
